Test results reported in patent US11414429B2, “Compound or pharmaceutically acceptable salt thereof” (RIKEN, priority 2016, dated 2022).
Read-outs that look alike come from different tables or passages of the source.

What was measured:
[1] = target: T1, tankyrase 2 (TNKS 2) (Homo sapiens, UniProt Q9H2K2); assay: Tankyrase inhibitory activity test (ELISA, self-polyADP ribosylation), tankyrase 2; type: biochemical
T1 construct: 613-1, 116aa; made in house; host or cells: cell-free protein synthesis system
T1 sequence (Q9H2K2 613-1166): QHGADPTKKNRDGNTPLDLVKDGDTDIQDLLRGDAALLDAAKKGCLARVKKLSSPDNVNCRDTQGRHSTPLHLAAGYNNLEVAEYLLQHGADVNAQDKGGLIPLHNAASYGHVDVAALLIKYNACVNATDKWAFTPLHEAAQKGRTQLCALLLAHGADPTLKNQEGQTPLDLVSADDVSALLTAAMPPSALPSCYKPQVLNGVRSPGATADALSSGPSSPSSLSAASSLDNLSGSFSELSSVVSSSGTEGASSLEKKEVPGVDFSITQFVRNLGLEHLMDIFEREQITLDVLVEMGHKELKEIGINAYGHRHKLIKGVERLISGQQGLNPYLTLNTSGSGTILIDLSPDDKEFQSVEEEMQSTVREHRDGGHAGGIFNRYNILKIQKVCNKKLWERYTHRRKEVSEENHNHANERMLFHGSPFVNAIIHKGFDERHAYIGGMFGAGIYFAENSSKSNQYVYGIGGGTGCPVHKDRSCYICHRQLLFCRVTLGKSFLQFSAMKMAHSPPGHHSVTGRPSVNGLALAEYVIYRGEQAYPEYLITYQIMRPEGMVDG
In short: (§1)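 IC50 was fitted to residual self-polyADP-ribosylation activity, detected by HRP-streptavidin chemiluminescence. Plate-bound Flag fusions (TNKS1 1,024-1,327aa SAM+PARP; TNKS2 613-1,116aa ANK5+SAM+PARP, cell-free synthesized) saw compound for 10 min at room temperature in 50 mM Tris-HCl pH 8.0, 4 mM MgCl2, 0.2 mM DTT. Reaction with 225 μM NAD/25 μM 6-biotin-17-NAD solution ran 45 min at 30 °C.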

[2] = target: T2, tankyrase 1 (TNKS 1) (Homo sapiens, UniProt O95271); assay: Tankyrase inhibitory activity test (ELISA, self-polyADP ribosylation), tankyrase 1; type: biochemical
T2 construct: 1,024-1,327aa; made in house; host or cells: cell-free protein synthesis system
T2 sequence (O95271 1024-1327): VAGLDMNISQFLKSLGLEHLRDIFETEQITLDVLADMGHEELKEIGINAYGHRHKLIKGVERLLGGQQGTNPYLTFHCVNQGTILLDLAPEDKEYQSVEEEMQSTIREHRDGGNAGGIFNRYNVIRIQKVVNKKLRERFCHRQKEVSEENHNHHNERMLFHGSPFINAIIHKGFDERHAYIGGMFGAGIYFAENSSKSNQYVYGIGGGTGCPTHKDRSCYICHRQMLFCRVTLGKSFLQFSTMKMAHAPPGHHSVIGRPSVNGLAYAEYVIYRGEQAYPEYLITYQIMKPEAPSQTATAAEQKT
In short: as §1

[3] = tested on: human colorectal cancer cell line, COLO-320DM; assay: Cell proliferation inhibitory activity test (Celltiter-Glo Luminescent Cell Viability Assay); type: cell-based; conditions: COLO-320DM cells, 96 hours
In short: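 GI50 is taken as the concentration halving cell growth versus 1% DMSO control, measured by ATP luminescence. Compound exposure lasted 96 h at 37° C. under 5% CO2, after overnight seeding in RPMI-1640 with 10% FBS and 2 mM glutamine.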

[4] = tankyrase 2, ELISA, self-polyADP ribosylation, read-out: TNKS2 inhibitory activity (IC50 class)
[5] = tankyrase 1, ELISA, self-polyADP ribosylation, read-out: TNKS1 inhibitory activity (IC50 class)
[6] = read-out: COLO-320 DM cell proliferation inhibitory activity (GI50 class)
[7] = class symbols, read-out: COLO-320 DM (cell proliferation inhibitory activity, GI50 value)
[8] = ELISA, self-polyADP ribosylation, class symbols, read-out: TNKS2 (inhibitory activity against tankyrase 2, IC50 value)
[9] = ELISA, self-polyADP ribosylation, class symbols, read-out: TNKS1 (inhibitory activity against tankyrase 1, IC50 value)

SMILES	IC50 [1, 4] [nM]	IC50 [2, 5] [nM]	GI50 [3, 6] [nM]	IC50 [1] [nM]	IC50 [2] [nM]	GI50 [3, 7] [nM]	IC50 [1, 8] [nM]	IC50 [2, 9] [nM]
CN(C)CCOc1cc(Cl)c2c(c1)N(C)C(=O)C21CCN(c2nc3c(c(=O)[nH]2)CCCN3C)CC1 [Example 375, 4-chloro-6-[2-(dimethylamino)ethoxy]-1-methyl-1′-(8-methyl-4-oxo-3,4,5,6,7,8-hexahydro-pyrido[2,3-d]pyrimidin-2-yl) spiro[indoline-3,4′-piperidin]-2-one]	< 20	< 20	100 to 600					
CN1CCCc2c1nc(N1CCC3(CC1)C(=O)N(C)c1cc(F)cc(F)c13)[nH]c2=O [Example 339, 4,6-difluoro-1-methyl-1′-(8-methyl-4-oxo-3,4,5,6,7,8-hexahydro-pyrido[2,3-d]pyrimidin-2-yl)spiro [indoline-3,4′-piperidin]-2-one]	< 20	< 20	100 to 600					
CN1CCCc2c1nc(N1CCC3(CC1)C(=O)N(C)c1cc(O)cc(F)c13)[nH]c2=O [Example 354, 4-fluoro-6-hydroxy-1-methyl-1′-(8-methyl-4-oxo-3,4,5,6,7,8-hexahydropyrido [2,3-d]pyrimidin-2-yl) spiro[indoline-3,4′-piperidin]-2-one]	< 20	< 20	100 to 600					
COCCN1C(=O)C2(CCN(c3nc4c(c(=O)[nH]3)CCCN4C)CC2)c2c(F)cc(OCCO)cc21 [Example 410, 4-fluoro-6-(2-hydroxy-ethoxy)-1-(2-methoxyethyl)-1′-(8-methyl-4-oxo-3,4,5,6,7,8-hexahydro-pyrido[2,3-d]pyrimi-din-2-yl)spiro[indoline-3,4′-piperidin]-2(1H)-one]						100 to 600	< 20	< 20
COCCN1C(=O)C2(CCN(c3nc4c(c(=O)[nH]3)CCCN4C)CC2)c2c(F)cc(N3CCNCC3)cc21 [Example 416]						100 to 600	< 20	< 20
CN1C(=O)C2(CCN(c3nc4c(c(=O)[nH]3)CCCN4)CC2)c2c(F)ccc(OCCO)c21 [Example 414, 4-fluoro-7-(2-hydroxy-ethoxy)-1′-(4-hydroxy-5,6,7,8-tetrahdyro-pyrido[2,3-d]pyrimidin-2-yl)-1-methyl-spiro [indole-3,4′-piperidin]-2-one]						600 to 1000	< 20	< 20
CN1CCCc2c1nc(N1CCC3(CC1)C(=O)N(C)c1c(OCC(=O)O)ccc(F)c13)[nH]c2=O [Example 412, 2-[4-fluoro-1′-(4-hy-droxy-8-methyl-6,7-di-hydro-5H-pyrido[2,3-d]pyrimidin-2-yl)-1-meth-yl-2-oxospiro[indole-3,4′-piperidin]-7-yl] oxyacetic acid]						600 to 1000	< 20	< 20
CN1CCCc2c1nc(N1CCC3(CC1)C(=O)N(C)c1cc(OCCN4CCS(=O)(=O)CC4)cc(Cl)c13)[nH]c2=O [Example 378, 4-chloro-6-[2-(1,1-dioxi-dothio-morpholino)ethoxy]-1-methyl-1′-(8-methyl-4-oxo-3,4,5,6,7,8-hexahydropyrido [2,3-d]pyrimidin-2-yl)spiro [indoline-3,4′-piperidin]-2-one]	< 20	< 20	600 to 1000					
CCN1CCCc2c1nc(N1CCC3(CC1)C(=O)N(CCO)c1cc(F)cc(F)c13)[nH]c2=O [Example 382, 1′-(8-ethyl-4-oxo-3,4,5,6,7-hexahydropyrido-[2,3-d]pyrimidin-2-yl)-4,6-difluoro-1-(2-hy-droxyethyl)spiro [indoline-3,4′-piperidin]-2-one]	< 20	< 20	100 to 600					
O=c1[nH]c(N2CCC3(CC2)CN(Cc2cccnc2)c2cccc(Cl)c23)nc2c1CCCC2 [Example 221, 2-[4-chloro-1-(pyridin-3-yl)methylspiro [indoline-3,4′-piperidin] 1′-yl)-5,6,7,8-tetrahydro quinazolin-4(3H)-one]	< 20	< 20	100 to 600					
COc1ccc(Cl)c2c1N(CC(C)(C)O)C(=O)C21CCN(c2nc3c(c(=O)[nH]2)CCCN3C)CC1 [Example 446, 4-chloro-1′-(4-hy-droxy-8-methyl-6,7-dihydro-5H-py-rido[2,3-d]pyrimi-din-2-yl)-1-(2-hy-droxy-2-methyl-propyl)-7-methoxy-spiro[indole-3,4′-piperidine]-2-one]						< 100	< 20	< 20
COc1ccc(Cl)c2c1N(CCN1CCN(C(C)=O)CC1)C(=O)C21CCN(c2nc3c(c(=O)[nH]2)CCCN3C)CC1 [Example 441, 1-[2-(4-acetylpiper-azin-1-yl)ethyl]-4-chloro-1′-(4-hy-droxy-8-methyl-6,7-dihydro-5H-py-rido[2,3-d]pyrimi-din-2-yl)-7-methoxy-spiro[indole-3,4′-piperidine]-2-one]						100 to 600	< 20	20 to 200
CN1CCCc2c1nc(N1CCC3(CC1)C(=O)N(C)c1c(OC4CC5CCC(C4)N5C)ccc(Cl)c13)[nH]c2=O (stereo not drawn) [Example 425, 4-chloro-1′-(4-hydroxy-8-methyl-6,7-dihydro-5H-pyrido[2,3-d]pyrimidin-2-yl)-1-methyl-7-[(8-methyl-8-azabicyclo [3.2.1]octan-3-yl)oxy] spiro[indole-3,4′-piperidin]-2-one]						100 to 600	< 20	< 20
O=c1[nH]c(N2CCC3(CC2)CN(Cc2ncccn2)c2cc(F)cc(F)c23)nc2c1CCCC2 [Example 316, 2-[4,6-difluoro-1-(pyrimidin-2-yl-methyl)spiro-[indoline-3,4′-piperidine]-1′-yl]-5,6,7,8-tetrahydro-quinazoline-4(3H)-one]	< 20	< 20	100 to 600					

The next lines start with the values.

IC50 [1, 4] [nM]	IC50 [2, 5] [nM]	GI50 [3, 6] [nM]	IC50 [1] [nM]	IC50 [2] [nM]	GI50 [3, 7] [nM]	IC50 [1, 8] [nM]	IC50 [2, 9] [nM]	SMILES
			20 to 200	20 to 200	600 to 1000			CN1CCCc2c1nc(N1CCC3(CC1)C(=O)N(C)c1cc(OCP(=O)(O)O)cc(F)c13)[nH]c2=O [Example 442, ({[4-fluoro-1-methyl-1′-(8-methyl-4-oxo-3,4,5,6,7,8-hexahydropyrido[2,3-d]pyrimidin-2-yl)-2-oxospiro[indoline-3,4′-piperidine]-6-yl]oxy}methyl) phosphonic Acid]
					< 100	< 20	< 20	CN1CCCc2c1nc(N1CCC3(CC1)C(=O)N(CC(F)(F)F)c1cc(OCc4nnn[nH]4)cc(F)c13)[nH]c2=O [Example 419, 6-[(1H-tetrazol-5-yl)methoxy]-4-fluoro-1′-(8-methyl-4-oxo-3,4,5,6,7,8-hexahydro-pyrido[2,3-d]pyrimidin-2-yl)-1-(2,2,2-trifluoro-ethyl)spiro[indoline-3,4′-piperidin]-2(1H)-one]
					600 to 1000	20 to 200	20 to 200	CN1CCCc2c1nc(N1CCC3(CC1)C(=O)N(C)c1cc(N4CCNCC4)cc(F)c13)[nH]c2=O [Example 457, 4-fluoro-1-methyl-1′-(8-methyl-4-oxo-3,4,5,6,7,8-hexahydropyrido [2,3-d]pyrimidin-2-yl)-6-piperazin-1-yl-spiro[indole-3,4′-piperidine]-2(1H)-one]
					600 to 1000	< 20	< 20	CN1CCCc2c1nc(N1CCC3(CC1)C(=O)N(C)c1cc(C(=O)O)cc(F)c13)[nH]c2=O [Example 431, 4-fluoro-1-methyl-1′-(8-methyl-4-oxo-3,4,5,6,7,8-hexahydro-pyrido[2,3-d]primi-din-2-yl)-2-oxospiro[indoline-3,4′-piperidine]-6-carboxylic acid]
					600 to 1000	< 20	20 to 200	CN1CCCc2c1nc(N1CCC3(CC1)C(=O)N(C)c1cc(N4CCN(C(N)=O)CC4)cc(F)c13)[nH]c2=O [Example 466, 4-[4-fluoro-1-methyl-1′-(8-methyl-4-oxo-3,4,5,6,7,8-hexahydropyrido[2,3-d]pyrimidin-2-yl)-2-oxospiro[indole-3,4′-piperidine]-6-yl]piperazine-1-carboxamide]
					100 to 600	< 20	< 20	CN1CCCc2c1nc(N1CCC3(CC1)C(=O)N(C)c1cc(N4CCS(=O)(=O)CC4)cc(F)c13)[nH]c2=O [Example 455, 6-(1,1-dioxdothio-morpholino)-4-fluoro-1-methyl-1′-(8-methyl-4-oxo-3,4,5,6,7,8-hexa-hydropyrido[2,3-d]pyrimidin-2-yl)spiro [indole-3,4′-piperi-dine]-2-one]
					600 to 1000	< 20	< 20	CN1CCCc2c1nc(N1CCC3(CC1)OC(=O)c1cc(N4CCN(C(C)(C)C)CC4)cc(F)c13)[nH]c2=O [Example 434, 6-(4-tert-butylpipera-zin-1-yl)-4-fluoro-1′-(4-hydroxy-8-methyl-6,7-dihydro-5H-pyrido [2,3-d]pyrimidin-2-yl) spiro[2,3-benzofuran-3,4′-piperidine]-1-one]
